This passage reports IC50 results from patent US7652013B2, “Inhibitors of stearoyl-CoA desaturase” (Hoffman-La Roche Inc., priority 2007, dated 2010).

For the experiment, the target named is T1, SCD1 (Mus musculus, UniProt P13516).
T1 construct: Mouse liver microsomes, prepared from mice fed a high carbohydrate diet, were a source of the SCD; from tissue; host or cells: mouse liver microsomes (mice fed a high carbohydrate diet)
T1 sequence (P13516 1-355): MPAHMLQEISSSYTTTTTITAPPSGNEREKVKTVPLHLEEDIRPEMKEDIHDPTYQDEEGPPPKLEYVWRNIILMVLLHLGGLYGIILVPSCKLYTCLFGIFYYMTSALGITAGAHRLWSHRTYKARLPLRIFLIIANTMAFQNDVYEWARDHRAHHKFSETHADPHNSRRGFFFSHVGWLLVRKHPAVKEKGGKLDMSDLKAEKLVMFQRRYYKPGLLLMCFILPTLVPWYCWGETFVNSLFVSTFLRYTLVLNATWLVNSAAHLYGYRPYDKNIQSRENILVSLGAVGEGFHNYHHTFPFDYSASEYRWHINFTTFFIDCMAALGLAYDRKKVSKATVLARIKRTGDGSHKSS
Description: SCD assay: release of tritiated water from desaturation of 9,10-3H-stearoyl CoA, mouse liver microsomes. Format: biochemical. The source says: Stearoyl CoA desaturase activity was monitored by a modification of the acyl carrier protein assay described by B. R. Talamo and K. Bloch in Anal. Biochem. 1968, 29, 300-304. The SCD assay monitors the release of tritiated water from the desaturation of 9,10-^3H-stearoyl CoA.
Mouse liver microsomes, prepared from mice fed a high carbohydrate diet, were a source of the SCD and cyt b5 and cyt b5 reductase, necessary accessory proteins for the coupled reaction. Reaction mixtures for compound titrations contained 50 mM Tris HCl pH 7.5, 100 mM NaCl, 0.165 mg/ml BSA, 2.4% DMSO, 1 mM NADH, 0.03% T-20, and 300 nM (9,10) ^3H-stearoyl CoA (Perkin-Elmer). Reactions were initiated upon the addition of 4 ug/ml SCD microsomes. Incubations were terminated after 25 minutes at room temperature with cold 6% TCA. After standing 10 minutes at 4 deg C., samples were centrifuged 15 minutes at 4000 rpm to pellet precipitated protein. Supernatants were added to microtiter plates containing suspensions of activated charcoal (Darco G-60, Fisher Scientific) and mixed by inversion. Plates were then centrifuged to separate ^3H—H2O product from charcoal-bound reactants. Supernatants were quantitated in a Perkin Elmer Topcount 384 after solubilization in ScintiSafe Plus 50% (Fisher Scientific).
Inhibition (%) of SCD activity by compounds was calculated according to the following formula: % Inhibition=100*[1−(CPMsample−CPMblank)/(CPMtotal−CPMblank)]
A general note: Liver microsomes are a subcellular fraction often used to study metabolism.
`Cc1cccc(CN2CCN(c3cc(=O)[nH]cn3)CC2)c1` [Example 1, 6-[4-(3-Methyl-benzyl)-piperazin-1-yl]-3H-pyrimidin-4-one] had an IC50 not above 1000 nM. In the case of `Cc1ccccc1CN1CCN(c2cc(=O)[nH]cn2)CC1` [Example 2, 6-[4-(2-Methyl-benzyl)-piperazin-1-yl]-3H-pyrimidin-4-one] it was not above 1000 nM. `Cc1cccc(C)c1CN1CCN(c2cc(=O)[nH]cn2)CC1` [Example 3, 6-[4-(2,6-Dimethyl-benzyl)-piperazin-1-yl]-3H-pyrimidin-4-one] registered an IC50 not above 1000 nM. As for `Cc1ccc(CN2CCN(c3cc(=O)[nH]cn3)CC2)c(C)c1` [Example 4, 6-[4-(2,4-Dimethyl-benzyl)-piperazin-1-yl]-3H-pyrimidin-4-one], the figure is not below 1100 nM. As for `COc1ccc(CN2CCN(c3cc(=O)[nH]cn3)CC2)c(C)c1C` [Example 5, 6-[4-(4-Methoxy-2,3-dimethyl-benzyl)-piperazin-1-yl]-3H-pyrimidin-4-one], the figure is not below 1100 nM. `COc1ccc(Br)cc1CN1CCN(c2cc(=O)[nH]cn2)CC1` [Example 6, 6-[4-(5-Bromo-2-methoxy-benzyl)-piperazin-1-yl]-3H-pyrimidin-4-one] had an IC50 not below 1100 nM. In turn, `COc1cc(Br)cc(CN2CCN(c3cc(=O)[nH]cn3)CC2)c1O` [Example 7, 6-[4-(5-Bromo-2-hydroxy-3-methoxy-benzyl)-piperazin-1-yl]-3H -pyrimidin-4-one] gave an IC50 not above 1000 nM. `O=c1cc(N2CCN(Cc3ccccc3C(F)(F)F)CC2)nc[nH]1` [Example 8, 6-[4-(2-Trifluoromethyl-benzyl)-piperazin-1-yl]-3H -pyrimidin-4-one] registered an IC50 not above 1000 nM.

`O=c1cc(N2CCN(Cc3cc(C(F)(F)F)ccc3C(F)(F)F)CC2)nc[nH]1` [Example 9, 6-[4-(2,5-Bis-trifluoromethyl-benzyl)-piperazin-1-yl]-3H -pyrimidin-4-one] gave an IC50 not above 1000 nM. Take `N#Cc1cccc(CN2CCN(c3cc(=O)[nH]cn3)CC2)c1` [Example 10, 3-[4-(6-Oxo-1,6-dihydro-pyrimidin-4-yl)-piperazin-1-ylmethyl]-benzonitrile]: the IC50 is not below 1100 nM. `N#Cc1cc(CN2CCN(c3cc(=O)[nH]cn3)CC2)ccc1F` [Example 11, 2-Fluoro-5-[4-(6-oxo-1,6-dihydro-pyrimidin-4-yl) -piperazin-1-ylmethyl]-benzo-nitrile] registered an IC50 not above 1000 nM. `O=c1cc(N2CCN(Cc3cccc(Cl)c3)CC2)nc[nH]1` [Example 12, 6-[4-(3-Chloro-benzyl)-piperazin-1-yl]-3H-pyrimidin-4-one] showed an IC50 not above 1000 nM. `O=c1cc(N2CCN(Cc3cccc(Br)c3)CC2)nc[nH]1` [Example 13, 6-[4-(3-Bromo-benzyl)-piperazin-1-yl]-3H-pyrimidin-4-one] displayed an IC50 not above 1000 nM. Take `O=c1cc(N2CCN(Cc3c(Cl)cccc3Cl)CC2)nc[nH]1` [Example 14, 6-[4-(2,6-Dichloro-benzyl)-piperazin-1-yl]-3H-pyrimidin-4-one]: the IC50 was not below 1100 nM. As for `O=c1cc(N2CCN(Cc3ccc(Cl)c(Cl)c3)CC2)nc[nH]1` [Example 15, 6-[4-(3,4-Dichloro-benzyl)-piperazin-1-yl]-3H-pyrimidin-4-one], the figure is not above 1000 nM. In the case of `O=c1cc(N2CCN(Cc3c(Cl)ccc(Cl)c3Cl)CC2)nc[nH]1` [Example 16, 6-[4-(2,3,6-Trichloro-benzyl)-piperazin-1-yl]-3H-pyrimidin-4-one] it was not above 1000 nM. Molecule `O=c1cc(N2CCN(Cc3cccc(Cl)c3Cl)CC2)nc[nH]1` [Example 17, 6-[4-(2,3-Dichloro-benzyl)-piperazin-1-yl]-3H-pyrimidin-4-one] registered an IC50 not above 1000 nM. `O=c1cc(N2CCN(Cc3ccccc3Br)CC2)nc[nH]1` [Example 18, 6-[4-(2-Bromo-benzyl)-piperazin-1-yl]-3H-pyrimidin-4-one] came in with an IC50 not above 1000 nM. As for `O=c1cc(N2CCN(Cc3cc(Br)ccc3F)CC2)nc[nH]1` [Example 19, 6-[4-(5-Bromo-2-fluoro-benzyl)-piperazin-1-yl]-3H -pyrimidin-4-one], the figure is not below 1100 nM; as for `O=c1cc(N2CCN(Cc3cc(F)ccc3Br)CC2)nc[nH]1` [Example 20, 6-[4-(2-Bromo-5-fluoro-benzyl)-piperazin-1-yl]-3H -pyrimidin-4-one], not above 1000 nM; as for `O=c1cc(N2CCN(Cc3ccc(F)c(F)c3)CC2)nc[nH]1` [Example 21, 6-[4-(3,4-Difluoro-benzyl)-piperazin-1-yl]-3H-pyrimidin-4-one], not above 1000 nM. Regarding `O=c1cc(N2CCN(Cc3ccc(F)c(Cl)c3)CC2)nc[nH]1` [Example 22, 6-[4-(3-Chloro-4-fluoro-benzyl)-piperazin-1-yl]-3H -pyrimidin-4-one], the IC50 was not above 1000 nM. The molecule `O=c1cc(N2CCN(Cc3cc(C(F)(F)F)ccc3Cl)CC2)nc[nH]1` [Example 23, 6-[4-(2-Chloro-5-trifluoromethyl-benzyl)-piperazin-1-yl]-3H-pyrimidin-4-one] yielded an IC50 not below 1100 nM. For `O=c1cc(N2CCN(Cc3cc(Cl)cc(Cl)c3O)CC2)nc[nH]1` [Example 24, 6-[4-(3,5-Dichloro-2-hydroxy-benzyl)-piperazin-1-yl]-3H-pyrimidin-4-one], the IC50 was not above 1000 nM. Take `O=c1cc(N2CCN(Cc3cc(Br)ccc3O)CC2)nc[nH]1` [Example 25, 6-[4-(5-Bromo-2-hydroxy-benzyl)-piperazin-1-yl]-3H -pyrimidin-4-one]: the IC50 is not above 1000 nM. On to `O=c1cc(N2CCN(Cc3cccc([N+](=O)[O-])c3)CC2)nc[nH]1` [Example 26, 6-[4-(3-Nitro-benzyl)-piperazin-1-yl]-3H-pyrimidin-4-one], for which the IC50 was not below 1100 nM. Molecule `O=c1cc(N2CCN(Cc3ccccc3[N+](=O)[O-])CC2)nc[nH]1` [Example 27, 6-[4-(2-Nitro-benzyl)-piperazin-1-yl]-3H-pyrimidin-4-one] yielded an IC50 not above 1000 nM.

Turning to `O=c1cc(N2CCN(Cc3cc(Cl)ccc3[N+](=O)[O-])CC2)nc[nH]1` [Example 28, 6-[4-(5-Chloro-2-nitro-benzyl)-piperazin-1-yl]-3H -pyrimidin-4-one], the IC50 is not above 1000 nM.

Take `O=c1cc(N2CCN(Cc3cc([N+](=O)[O-])ccc3O)CC2)nc[nH]1` [Example 29, 6-[4-(2-Hydroxy-5-nitro-benzyl)-piperazin-1-yl]-3H -pyrimidin-4-one]: the IC50 is not above 1000 nM. As for `O=c1cc(N2CCN(Cc3ccccc3O)CC2)nc[nH]1` [Example 30, 6-[4-(2-Hydroxy-benzyl)-piperazin-1-yl]-3H-pyrimidin-4-one], the figure is not below 1100 nM; as for `O=c1cc(N2CCN(Cc3cc(OC(F)(F)F)ccc3O)CC2)nc[nH]1` [Example 31, 6-[4-(2-Hydroxy-5-trifluoromethoxy-benzyl)-piperazin-1-yl]-3H -pyrimidin-4-one], not above 1000 nM; as for `Cc1c(Br)cccc1CN1CCN(c2cc(=O)[nH]cn2)CC1` [Example 35, 6-[4-(3-Bromo-2-methyl-benzyl)-piperazin-1-yl]-3H -pyrimidin-4-one], not above 1000 nM. In the case of `O=c1cc(N2CCN(Cc3ccccc3-c3ccccc3)CC2)nc[nH]1` [Example 36, 6-(4-Biphenyl-2-ylmethyl-piperazin-1-yl)-3H-pyrimidin-4-one] it was not below 1100 nM; in that of `O=c1cc(N2CCN(Cc3cccc4c3OCO4)CC2)nc[nH]1` [Example 37, 6-(4-Benzo[1,3]dioxol-4-ylmethyl-piperazin-1-yl)-3H -pyrimidin-4-one], not below 1100 nM; in that of `Cc1cccc(CN2CCN(c3cc(=O)[nH]cn3)CC2)c1O` [Example 38, 6-[4-(2-Hydroxy-3-methyl-benzyl)-piperazin-1-yl]-3H -pyrimidin-4-one], not above 1000 nM.

Molecule `Cc1ccc(O)c(CN2CCN(c3cc(=O)[nH]cn3)CC2)c1` [Example 39, 6-[4-(2-Hydroxy-5-methyl-benzyl)-piperazin-1-yl]-3H -pyrimidin-4-one] yielded an IC50 not above 1000 nM. As for `C=CCc1cccc(CN2CCN(c3cc(=O)[nH]cn3)CC2)c1O` [Example 40, 6-[4-(3-Allyl-2-hydroxy-benzyl)-piperazin-1-yl]-3H -pyrimidin-4-one], the figure is not above 1000 nM. `CC(C)(C)c1cccc(CN2CCN(c3cc(=O)[nH]cn3)CC2)c1O` [Example 41, 6-[4-(3-tert-Butyl-2-hydroxy-benzyl)-piperazin-1-yl]-3H-pyrimidin-4-one] displayed an IC50 not above 1000 nM. In turn, `O=c1cc(N2CCN(Cc3cccc(F)c3O)CC2)nc[nH]1` [Example 42, 6-[4-(3-Fluoro-2-hydroxy-benzyl)-piperazin-1-yl]-3H -pyrimidin-4-one] gave an IC50 not above 1000 nM.

By IC50 is commonly meant the concentration at which inhibition is half-maximal. Low readings indicate greater potency, high ones weaker potency.
